Data as given in PubChem BioAssay (NCI).
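Protocol summary: plate cells (96-well), add compound at 5 concentrations, incubate 48 h, interpolate endpoints linearly. GI50 marks 50% less growth. Definition used: TGI = concentration required for complete inhibition of growth.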

Assays:
Assay in all cases: growth of human tumour cells (NCI), 48 h
[1] = system: SK-OV-3 ovarian
[2] = system: SF-268 CNS
[3] = system: SF-539 CNS
[4] = system: HOP-62 NSCLC
[5] = system: SR leukemia
[6] = system: HCT-15 colon
[7] = system: SNB-19 CNS
[8] = system: UACC-62 melanoma
[9] = system: MCF7 breast
[10] = system: U251 CNS
[11] = system: NCI-H23 lung
[12] = system: SW-620 colon
[13] = system: TK-10 renal
[14] = system: A498 renal
[15] = system: MDA-MB-435
[16] = system: OVCAR-3 ovarian
[17] = system: K-562 leukemia
[18] = system: MDA-MB-231 breast
[19] = system: MOLT-4 leukemia
[20] = system: HL-60(TB) leukemia
[21] = system: CAKI-1 renal
[22] = system: NCI-H522 lung
[23] = system: DU-145 prostate
[24] = system: UACC-257 melanoma
[25] = system: ACHN renal
[26] = system: OVCAR-8 ovarian
[27] = system: COLO 205 colon
[28] = system: SK-MEL-5 melanoma
[29] = system: CCRF-CEM leukemia
[30] = system: HCC-2998 colon
[31] = system: RXF 393 renal
[32] = system: OVCAR-5 ovarian
[33] = system: UO-31 renal
[34] = system: HT29 colon
[35] = system: LOX IMVI melanoma
[36] = system: IGROV1 ovarian
[37] = system: MALME-3M melanoma
[38] = system: M14 melanoma
[39] = system: SK-MEL-28 melanoma
[40] = system: SK-MEL-2 melanoma
[41] = system: A549 NSCLC
[42] = system: HCT-116 colon
[43] = system: KM12 colon
[44] = system: PC-3 prostate
[45] = system: HOP-92 NSCLC
[46] = system: SN12C renal
[47] = system: NCI/ADR-RES ovarian
[48] = system: HS 578T breast
[49] = system: NCI-H460 lung
[50] = system: EKVX NSCLC
[51] = system: OVCAR-4 ovarian
[52] = system: T-47D breast
[53] = system: RPMI-8226 leukemia
[54] = system: SF-295 CNS
[55] = system: NCI-H226 lung
[56] = system: SNB-75 CNS
[57] = system: 786-0 renal
[58] = system: BT-549 breast

Q: What does the source list for `CCOC(=O)c1sc(NCC(=O)Nc2cccc([N+](=O)[O-])c2)c(C(=O)OCC)c1C`?
A: GI50 [1]: 0.307 µM; TGI [1]: 0.838 µM; GI50 [2]: 0.961 µM; TGI [2]: 3.74 µM; GI50 [3]: 0.3 µM; TGI [3]: 0.88 µM; GI50 [4]: 1.02 µM; TGI [4]: 4.13 µM; GI50 [5]: 0.354 µM; GI50 [6]: 0.286 µM; TGI [6]: 1.84 µM; GI50 [7]: 0.496 µM; TGI [7]: 4.74 µM; GI50 [8]: 0.173 µM; TGI [8]: 0.381 µM; GI50 [9]: 0.274 µM; TGI [9]: 1.03 µM; GI50 [10]: 0.274 µM; TGI [10]: 1.08 µM; GI50 [11]: 0.241 µM; TGI [11]: 0.665 µM; GI50 [12]: 0.325 µM; TGI [12]: 1.9 µM; GI50 [13]: 0.263 µM; TGI [13]: 1.27 µM; GI50 [14]: 0.309 µM; TGI [14]: 1.16 µM; GI50 [15]: 0.486 µM; TGI [15]: 1.76 µM; GI50 [16]: 0.376 µM; TGI [16]: 1.75 µM; GI50 [17]: 0.333 µM; TGI [17]: > 36.7 µM; GI50 [18]: 1.23 µM; TGI [18]: 3.85 µM; GI50 [19]: 0.342 µM; TGI [19]: > 33.2 µM; GI50 [20]: 0.464 µM; GI50 [21]: 0.267 µM; TGI [21]: 0.81 µM; GI50 [22]: 0.251 µM; TGI [22]: 0.757 µM; GI50 [23]: 0.76 µM; TGI [23]: 6.32 µM; GI50 [24]: 1.06 µM; TGI [24]: 5.24 µM; GI50 [25]: 0.289 µM; TGI [25]: 0.797 µM; GI50 [26]: 0.375 µM; GI50 [27]: 0.287 µM; TGI [27]: 0.846 µM; GI50 [28]: 0.346 µM; TGI [28]: 1.23 µM; GI50 [29]: 0.288 µM; GI50 [30]: 1.4 µM; TGI [30]: 3.47 µM; GI50 [31]: 0.175 µM; TGI [31]: 0.348 µM; GI50 [32]: 0.283 µM; TGI [32]: 0.824 µM; GI50 [33]: 0.202 µM; TGI [33]: 0.522 µM; GI50 [34]: 0.272 µM; TGI [34]: 0.821 µM; GI50 [35]: 0.172 µM; TGI [35]: 0.358 µM; GI50 [36]: 0.238 µM; TGI [36]: 0.693 µM; GI50 [37]: 0.231 µM; TGI [37]: 0.598 µM; GI50 [38]: 0.329 µM; TGI [38]: 1.3 µM; GI50 [39]: 0.291 µM; TGI [39]: 0.883 µM; GI50 [40]: 1.77 µM; TGI [40]: 4.79 µM; GI50 [41]: 0.461 µM; TGI [41]: 3.06 µM; GI50 [42]: 0.303 µM; TGI [42]: 1.36 µM; GI50 [43]: 0.539 µM; TGI [43]: 3.97 µM; GI50 [44]: 0.229 µM; TGI [44]: 0.598 µM; GI50 [45]: 0.221 µM; TGI [45]: 0.873 µM; GI50 [46]: 0.285 µM; TGI [46]: 0.93 µM; GI50 [47]: 0.319 µM; TGI [47]: 1.58 µM; GI50 [48]: 0.27 µM; TGI [48]: 1.03 µM; GI50 [49]: 0.313 µM; TGI [49]: 0.963 µM; GI50 [50]: 1.65 µM; TGI [50]: 4.53 µM; GI50 [51]: 0.897 µM; TGI [51]: 5.18 µM; GI50 [52]: 1.27 µM; TGI [52]: 3.88 µM; GI50 [53]: 0.366 µM; TGI [53]: 1.75 µM; GI50 [54]: 0.543 µM; TGI [54]: 3.77 µM; GI50 [55]: 0.23 µM; TGI [55]: 0.602 µM; GI50 [56]: 0.79 µM; TGI [56]: 3.44 µM; GI50 [57]: 0.254 µM; TGI [57]: 0.907 µM; GI50 [58]: 0.258 µM; TGI [58]: 0.769 µM
